Measured values: the supplement of paper PMC10307832

Key:
Test in all cases: relative viability (nuclei count vs DMSO), 5 days (fraction); higher = more cells survive
Bicalutamide + Lapatinib = compound: CC(O)(CS(=O)(=O)c1ccc(F)cc1)C(=O)Nc1ccc(C#N)c(C(F)(F)F)c1 [Bicalutamide] + CS(=O)(=O)CCNCc1ccc(-c2ccc3ncnc(Nc4ccc(OCc5cccc(F)c5)c(Cl)c4)c3c2)o1 [Lapatinib] (partner 2 µM)
Method in brief: (§1)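 Relative viability divides the nuclei count in treated wells by that in vehicle wells. Lung cancer cell lines were seeded in 1536-well plates, dosed by pin tool the next day, and fixed and stained after 5 days in one step with final 0.05% Triton X-100, 1% formaldehyde and 1 ug/ml Hoechst. Dosing was a single drug or a fixed anchor-drug dose plus five library-drug doses (not always all listed) in √10 steps, and values are medians of duplicate plates imaged at 4×.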

[1] = compound: C(C(=O)C(=O)O)Br [Bromopyruvate] + O=C(CCCCCCC(=O)Nc1ccccc1)NO [Vorinostat] (partner 1 µM)
Method in brief: as §1

[2] = compound: CC(O)(CS(=O)(=O)c1ccc(F)cc1)C(=O)Nc1ccc(C#N)c(C(F)(F)F)c1 [Bicalutamide] + O=C(CCCCCCC(=O)Nc1ccccc1)NO [Vorinostat] (partner 1 µM)
Method in brief: as §1

[3] = compound: C(C(=O)C(=O)O)Br [Bromopyruvate] + N=C(N)NC(=N)NCCc1ccccc1 [Phenformin] (partner 250 µM)
Method in brief: as §1

Cell Line | relative viability (Bicalutamide + Lapatinib; first compound 0.08 µM) | relative viability (Bicalutamide + Lapatinib; first compound 0.253 µM) | relative viability (Bicalutamide + Lapatinib; first compound 0.8 µM) | relative viability (Bicalutamide + Lapatinib; first compound 2.53 µM) | relative viability ([1]; first compound 1 µM) | relative viability ([1]; first compound 3.162 µM) | relative viability ([1]; first compound 10 µM) | relative viability ([1]; first compound 31.62 µM) | relative viability ([1]; first compound 100 µM) | relative viability ([2]; first compound 0.08 µM) | relative viability ([2]; first compound 0.253 µM) | relative viability ([2]; first compound 0.8 µM) | relative viability ([2]; first compound 2.53 µM) | relative viability ([3]; first compound 1 µM) | relative viability ([3]; first compound 3.162 µM) | relative viability ([3]; first compound 10 µM) | relative viability ([3]; first compound 31.62 µM) | relative viability ([3]; first compound 100 µM)
IA-LM | 0.969 | 0.958 | 1.02 | 0.711 | 0.964 | 0.975 | 1.15 | 0.861 | 0.696 | 0.985 | 0.803 | 1.16 | 0.892 |  |  |  |  | 
NCI-H441 |  |  |  |  | 0.828 | 0.856 | 0.761 | 0.623 | 0.607 | 0.924 | 0.755 | 0.778 | 0.751 | 0.852 | 0.945 | 0.796 | 0.743 | 0.838
NCI-H322M | 0.576 | 0.602 | 0.664 | 0.572 | 1.04 | 0.844 | 0.739 | 0.8 | 0.88 | 0.858 | 0.898 | 0.995 | 1.11 | 0.727 | 0.756 | 0.809 | 0.796 | 0.784
NCI-H1993 |  | 0.897 | 0.732 | 0.854 | 0.19 | 0.862 | 0.83 | 0.72 | 0.842 | 0.864 | 0.675 | 0.787 | 0.705 | 0.492 | 0.488 | 0.547 | 0.495 | 0.501
COR-L23 | 0.941 | 0.921 | 1.2 | 0.998 | 0.381 | 0.473 | 0.432 | 0.387 | 0.255 | 0.443 | 0.486 | 0.411 | 0.267 | 0.433 | 0.435 | 0.459 | 0.411 | 0.227
NCI-H2126 | 0.686 | 0.697 | 0.74 | 0.753 | 0.82 | 0.832 | 0.886 | 0.829 | 0.639 | 0.716 | 0.712 | 0.931 | 0.75 | 0.556 | 0.534 | 0.518 | 0.54 | 0.513
LC-2-ad | 0.851 | 0.873 | 1.08 | 0.957 | 0.706 | 0.631 | 0.72 | 0.645 | 0.575 | 0.767 | 0.679 | 0.67 | 0.556 | 0.564 | 0.621 | 0.576 | 0.599 | 0.525
NCI-H1915 | 0.933 | 0.933 | 1.06 | 0.882 | 0.5 | 0.495 | 0.529 | 0.462 | 0.423 | 0.536 | 0.456 | 0.584 | 0.522 | 0.363 | 0.371 | 0.378 | 0.379 | 0.383
NCI-H1793 | 0.637 | 0.645 | 1.04 | 0.832 | 0.792 | 0.914 | 0.794 | 0.727 | 0.634 | 0.869 |  | 0.996 | 0.566 | 0.382 | 0.452 | 0.455 | 0.413 | 0.401
NCI-H2085 | 0.776 | 0.739 | 0.839 | 0.704 | 0.769 | 0.81 | 0.798 | 0.764 | 0.862 | 0.829 | 0.741 | 0.816 | 0.687 | 0.693 | 0.757 | 0.84 | 0.749 | 0.698
COR-L 105 | 0.333 | 0.353 | 0.39 | 0.311 | 0.708 | 0.68 | 0.645 | 0.665 | 0.411 | 0.983 | 0.712 | 0.944 | 0.717 | 0.488 | 0.438 | 0.484 | 0.405 | 0.391
SK-LU-1 | 0.95 | 0.828 | 0.997 | 0.854 | 0.744 | 0.81 | 0.728 | 0.632 | 0.713 | 0.871 | 0.856 | 0.82 | 0.699 | 0.52 | 0.533 | 0.581 | 0.506 | 0.494
LXF-289 | 0.92 | 0.845 | 0.991 | 0.877 | 0.777 | 0.796 | 0.714 | 0.81 | 0.677 | 0.818 | 0.734 | 0.797 | 0.698 | 0.525 | 0.537 | 0.516 | 0.504 | 0.531
NCI-H1792 | 0.958 | 0.858 | 1.03 | 0.91 |  |  |  |  |  |  |  |  |  | 0.227 | 0.345 |  | 0.386 | 0.252
ChaGo-K-1 |  |  |  |  | 0.818 | 0.755 | 0.879 | 0.703 | 0.67 | 0.763 | 0.691 | 0.887 | 0.772 | 0.581 | 0.531 | 0.511 | 0.473 | 0.411
NCI-H522 |  |  |  |  | 0.93 | 1.02 | 1.02 | 0.799 | 0.763 | 1.01 | 0.862 | 0.99 | 0.77 | 0.599 | 0.654 | 0.641 | 0.679 | 0.574
NCI-H1299 | 0.92 | 0.966 | 0.971 | 0.929 |  |  |  |  |  |  |  |  |  |  |  |  |  | 
NCI-H1648 |  |  |  |  | 0.324 | 0.566 | 0.563 | 0.766 | 0.314 |  |  | 0.698 | 0.425 |  |  |  |  | 
NCI-H2342 |  |  |  |  | 0.807 | 0.806 | 0.7 | 0.622 | 0.684 | 0.759 | 0.767 | 0.853 | 0.801 | 0.574 | 0.645 | 0.613 | 0.479 | 0.488
SW 900 |  |  |  |  | 0.393 | 0.487 | 0.559 | 0.377 | 0.476 | 0.601 | 0.281 | 0.394 | 0.398 | 0.645 | 0.55 | 0.755 | 0.706 | 0.627
A549 | 1.12 | 0.959 | 1.04 | 0.778 |  |  |  |  |  |  |  |  |  | 0.17 | 0.16 | 0.0997 | 0.234 | 0.22
NCI-H1563 | 1.19 | 0.853 | 0.984 | 0.776 |  |  |  |  |  |  |  |  |  | 0.621 | 0.748 | 0.643 | 0.673 | 0.657
LCLC-103H |  |  |  |  | 0.762 | 0.757 | 0.818 | 0.821 | 0.691 | 0.791 | 0.679 | 0.914 | 0.744 | 0.343 | 0.338 | 0.371 | 0.362 | 0.365
